The numbers were not newly measured in patent US8828934B2, “Mnk kinase homologous proteins involved in the regulation of energy homeostasis and organelle metabolism” (Boehringer Ingelheim International GmbH, priority 2001, dated 2014), which cites them from elsewhere.

Series [1] deals with Mnk2 (Mnk2a or Mnk2b) or Mnk1. The conditions noted are these: compound added to cell culture cells transfected with Mnk2 (Mnk2a or Mnk2b) or Mnk1.
The conditions of series [2]: not cytotoxic up to this concentration.

As for `Nc1ncnc2n[nH]c(Nc3ccc(F)cc3)c12` [CGP57380], in series [1], the “reduction in phosphorylated eIF4E” value is “strong reduction in phosphorylated eIF4E”. Further, the “concentration up to which not cytotoxic” value in series [2] is over 30 µM.
